Results published in patent publication US20220395472A1 (Dermavant Sciences GmbH, priority 2021, published 2022).

Tested on: adults with plaque psoriasis
Experiment: Long-term open-label extension study (PSOARING 3): Physician Global Assessment (PGA), treatment episodes, treatment success, remittive effect
Assay type: in vivo, human
Conditions: for Proportion of subjects who never achieved PGA = 0 or 1 throughout the study / Proportion of subjects who achieved PGA = 0 or 1 at least 1 time during the study: entering with PGA ≥ 2
Protocol: This extension study consisted of up to 40 weeks of treatment and a 4 week, safety follow up period.
At the completion of the Week 12 visit of the DB, pivotal Phase 3 study, eligibility of the subjects opting to enroll in this extension study was confirmed. Study visits during the treatment period for all subjects occurred every 4 weeks (±3 days). A phone call was performed at Week 2 (Day 15). Unscheduled visits may have occurred, as needed. Subjects who withdrew from this study before Week 40 returned to the study center for an Early Termination visit. The total duration of this extension study participation was 44 weeks. Subjects in this study were treated as follows based on their PGA score from the Week 12 visit in the DB, pivotal Phase 3 study (Study DMVT 505 3001 or Study DMVT 505 3002).
The PGA was used to assess the primary efficacy endpoint in this study. The PGA is a clinical tool for assessing the current state/severity of a subject's psoriasis at a given time point. It is a static, 5 point, morphological assessment of overall disease severity, as determined by the Investigator, using the clinical characteristics of erythema, scaling, and plaque thickness/elevation as guidelines; higher PGA scores represent more severe disease (0=clear, 1=almost clear, 2=mild, 3=moderate, and 4=severe). The BSA affected was not considered in scoring of the PGA. Variations of the PGA are frequently used in clinical studies because it is a simple assessment, similar to those used in clinical practice. The PGA was performed first, prior to the % BSA, PASI, and LTS assessments.
Time to event parameters, such as the time from treatment success to subsequent worsening (PGA≥2) or duration of treatment episode, were summarized by the Kaplan Meier product limit method using OC.

[1] = entering with PGA = 0, Kaplan-Meier, Overall
[2] = entering with PGA = 0, Kaplan-Meier, Tapinarof (Pivotal) group
[3] = entering with PGA = 0, Kaplan-Meier, Vehicle (Pivotal) group
[4] = entering with PGA = 0, Tapinarof (Pivotal) group
[5] = entering with PGA = 0, Vehicle (Pivotal) group
[6] = entering with PGA ≥ 1, Kaplan-Meier, Vehicle (Pivotal) group
[7] = entering with PGA ≥ 1, Tapinarof (Pivotal) group
[8] = entering with PGA ≥ 1, Vehicle (Pivotal) group
[9] = final analysis, overall, baseline

SMILES: CC(C)c1c(O)cc(/C=C/c2ccccc2)cc1O [Tapinarof, 3,5-Dihydroxy-4-isopropyl-trans-stilbene]
- PGA 2 - Mild (Week 40 OC, Vehicle (Pivotal)): 35 (31.0) n (%)
- PGA 3 - Moderate (Week 40 OC, Vehicle (Pivotal)): 15 (13.3) n (%)
- PGA 4 - Severe (Week 40 OC, Vehicle (Pivotal)): 0 (0.0) n (%)
- PGA Change from Baseline: Improved by 1 (Week 40 OC, Vehicle (Pivotal)): 41 (36.3) n (%)
- PGA Change from Baseline: Improved by 2 (Week 40 OC, Vehicle (Pivotal)): 27 (23.9) n (%)
- PGA Change from Baseline: Improved by 3 (Week 40 OC, Vehicle (Pivotal)): 17 (15.0) n (%)
- PGA Change from Baseline: Improved by 4 (Week 40 OC, Vehicle (Pivotal)): 1 (0.9) n (%)
- PGA Change from Baseline: No Change (Week 40 OC, Vehicle (Pivotal)): 19 (16.8) n (%)
- PGA Change from Baseline: Worsened by 1 (Week 40 OC, Vehicle (Pivotal)): 7 (6.2) n (%)
- PGA Change from Baseline: Worsened by 2 (Week 40 OC, Vehicle (Pivotal)): 1 (0.9) n (%)
- PGA Change from Baseline: Worsened by 3 (Week 40 OC, Vehicle (Pivotal)): 0 (0.0) n (%)
- PGA Change from Baseline: Worsened by 4 (Week 40 OC, Vehicle (Pivotal)): 0 (0.0) n (%)
- Durability of Response, No. of Subjects (Wk. 0, Overall): 240
- Durability of Response, No. of Subjects (Wk. 0, Tapinarof→Tapinarof): 18
- Durability of Response, No. of Subjects (Wk. 4, Overall): 273
- Durability of Response, No. of Subjects (Wk. 4, Tapinarof→Tapinarof): 216
- Durability of Response, No. of Subjects (Wk. 4, Vehicle→Tapinarof): 57
- Durability of Response, No. of Subjects (Wk. 8, Overall): 330
- Durability of Response, No. of Subjects (Wk. 8, Tapinarof→Tapinarof): 243
- Durability of Response, No. of Subjects (Wk. 8, Vehicle→Tapinarof): 87
- Durability of Response, No. of Subjects (Wk. 12, Overall): 334
- Durability of Response, No. of Subjects (Wk. 12, Tapinarof→Tapinarof): 233
- Durability of Response, No. of Subjects (Wk. 16, Overall): 336
- Durability of Response, No. of Subjects (Wk. 16, Tapinarof→Tapinarof): 239
- Durability of Response, No. of Subjects (Wk. 16, Vehicle→Tapinarof): 97
- Durability of Response, No. of Subjects (Wk. 20, Overall): 358
- Durability of Response, No. of Subjects (Wk. 20, Tapinarof→Tapinarof): 250
- Durability of Response, No. of Subjects (Wk. 24, Overall): 346
- Durability of Response, No. of Subjects (Wk. 24, Tapinarof→Tapinarof): 236
- Durability of Response, No. of Subjects (Wk. 28, Overall): 336
- Durability of Response, No. of Subjects (Wk. 28, Tapinarof→Tapinarof): 230
- Durability of Response, No. of Subjects (Wk. 32, Overall): 339
- Durability of Response, No. of Subjects (Wk. 32, Tapinarof→Tapinarof): 233
- Durability of Response, No. of Subjects (Wk. 36, Overall): 340
- Durability of Response, No. of Subjects (Wk. 36, Tapinarof→Tapinarof): 225
- Durability of Response, No. of Subjects (Wk. 40, Overall): 330
- Durability of Response, No. of Subjects (Wk. 40, Tapinarof→Tapinarof): 224
- Time to First Worsening (PGA ≥ 2), Median (95% CI) (entering with PGA = 0 (n=78), Kaplan-Meier, Overall, interim): 115 (85.0, 162.0) days
- Time to First Worsening (PGA ≥ 2), 25th percentile (95% CI) [1]: 54 (29.0, 66.0) days
- Time to First Worsening (PGA ≥ 2), 75th percentile (95% CI) [1]: 222 (169.0, 309.0) days
- Time to First Worsening (PGA ≥ 2), 25th percentile (95% CI) [2]: 54 (29.0, 76.0) days
- Time to First Worsening (PGA ≥ 2), 75th percentile (95% CI) [2]: 196 (168.0, 309.0) days
- Time to First Worsening (PGA ≥ 2), Median (95% CI) [2]: 114 (85.0, 142.0) days
- Time to First Worsening (PGA ≥ 2), 25th percentile (95% CI) [3]: 66 (42.0, NE) days
- Time to First Worsening (PGA ≥ 2), Median (95% CI) [3]: 281 (42.0, NE) days
- Proportion of subjects who experienced PGA ≥ 2 at least 1 time during the study (entering with PGA = 0, Overall): 59/78 (75.6) %
- Proportion of subjects who never experienced PGA ≥ 2 throughout the study (entering with PGA = 0, Overall): 19/78 (24.4) %
- Proportion of subjects who experienced PGA ≥ 2 at least 1 time during the study (entering with PGA = 0, Overall, listed as tapinarof): 75.6%
- Proportion of subjects who experienced PGA ≥ 2 at least 1 time during the study [4]: 56/73 (76.7) %
- Proportion of subjects who never experienced PGA ≥ 2 throughout the study [4]: 17/73 (23.3) %
- Proportion of subjects who experienced PGA ≥ 2 at least 1 time during the study [5]: 3/5 (60.0) %
- Proportion of subjects who never experienced PGA ≥ 2 throughout the study [5]: 2/5 (40.0) %
- Time to First Achieving PGA = 0, 25th percentile (entering with PGA ≥ 1, Kaplan-Meier, Overall): 141 days
- Time to First Achieving PGA = 0, 25th percentile (entering with PGA ≥ 1, Kaplan-Meier, Overall, listed as tapinarof): 141 days
- Time to First Achieving PGA = 0, 25th percentile (entering with PGA ≥ 1, Kaplan-Meier, Tapinarof (Pivotal) group): 113 days
- Time to First Achieving PGA = 0, 25th percentile (entering with PGA ≥ 1, Kaplan-Meier, Tapinarof (Pivotal) group, listed as tapinarof): 113 days
- Time to First Achieving PGA = 0, 25th percentile [6]: 169 days
- Time to First Achieving PGA = 0, Median [6]: 313 days
- Time to First Achieving PGA = 0, 25th percentile (entering with PGA ≥ 1, Kaplan-Meier, Vehicle (Pivotal) group, listed as tapinarof): 169 days
- Proportion of subjects who achieved PGA = 0 at least 1 time during the study (entering with PGA ≥ 1, Overall): 221/681 (32.5) %
- Proportion of subjects who never achieved PGA = 0 throughout the study (entering with PGA ≥ 1, Overall): 460/681 (67.5) %
- Proportion of subjects who achieved PGA = 0 at least 1 time during the study (entering with PGA ≥ 1, Overall, listed as tapinarof): 32.5%
- Proportion of subjects who achieved PGA = 0 at least 1 time during the study [7]: 139/432 (32.2) %
- Proportion of subjects who never achieved PGA = 0 throughout the study [7]: 293/432 (67.8) %
- Proportion of subjects who achieved PGA = 0 at least 1 time during the study (entering with PGA ≥ 1, Tapinarof (Pivotal) group, listed as tapinarof): 32.2%
- Proportion of subjects who achieved PGA = 0 at least 1 time during the study [8]: 82/249 (32.9) %
- Proportion of subjects who never achieved PGA = 0 throughout the study [8]: 167/249 (67.1) %
- Proportion of subjects who achieved PGA = 0 at least 1 time during the study (entering with PGA ≥ 1, Vehicle (Pivotal) group, listed as tapinarof): 32.9%
- Proportion of subjects who never achieved PGA = 0 or 1 throughout the study (Overall): 222/520 (42.7) %
- Proportion of subjects who achieved PGA = 0 or 1 at least 1 time during the study (Overall, interim): 298/520 (57.3) %
- Proportion of subjects who achieved PGA = 0 or 1 at least 1 time during the study (Overall, interim, listed as tapinarof): 57.3%
- Proportion of subjects who achieved PGA = 0 or 1 at least 1 time during the study (Tapinarof (Pivotal) group): 154/288 (53.5) %
- Proportion of subjects who never achieved PGA = 0 or 1 throughout the study (Tapinarof (Pivotal) group): 134/288 (46.5) %
- Proportion of subjects who achieved PGA = 0 or 1 at least 1 time during the study (Tapinarof (Pivotal) group, listed as tapinarof): 53.5%
- Proportion of subjects who achieved PGA = 0 or 1 at least 1 time during the study (Vehicle (Pivotal) group): 144/232 (62.1) %
- Proportion of subjects who never achieved PGA = 0 or 1 throughout the study (Vehicle (Pivotal) group): 88/232 (37.9) %
- Proportion of subjects who achieved PGA = 0 or 1 at least 1 time during the study (Vehicle (Pivotal) group, listed as tapinarof): 62.1%
- Patients entering with PGA≥2 who achieved PGA 0 or 1 at least once during the study (final analysis): 58.2%
- Patients who achieved complete disease clearance (PGA=0) at least once during the study (final analysis, 312/763): 40.9%
- participants with PGA=0 or 1 (final analysis, overall, Week 40): 44.3%
- participants with PGA=0 [9]: 10.4%
- participants with PGA=0 or 1 [9]: 31.6%
- mean total duration of remittive effect (final analysis, patients entering with, or achieving, PGA=0 (n=312)): 130 days
